Reference: patent US8957228B2, “Macrolide compound having anticancer effect” (Tohoku University, priority 2010, dated 2015)

What was measured:
[1] = system: A549, H460 and A172 cell lines; test: Antiproliferative activity test (Alamar Blue, 72 hours), statements across cell lines; assay type: cell-based, human; settings: result in words; for induction of cell death: no data are shown
Description: (§1) Antiproliferative activities of exiguolide and its analogs shown in Examples were examined using A549 and H460 cell lines derived from lung cancer and an A172 cell line derived from human glioblastoma cells. Each cell line was maintained in an RPMI 1640 medium supplemented with 10% fetal bovine serum (in the cases of the H460 cell line and the A172 cell line) or in a DMEM medium supplemented with 10% fetal bovine serum (in the case of the A549 cell line). Cells in the proliferative phase were seeded in a 96-well plate in triplicate and were cultured for 72 hours in the presence of the compound at various concentrations. At the completion of the culture period, an Alamar Blue solution (Invitrogen Corporation) was added to each culture in an amount of 1/10 of that of the medium, followed by leaving to stand for 3 hours. The fluorescence intensity was measured with Fluoroskan Ascent (Thermo Fisher Scientific K.K.). […] The fluorescence intensities of experimental groups were determined as relative intensities to that of the control group and were plotted. The concentration of a compound for achieving the 50% growth inhibition (IC50) of each cancer cell line was calculated by a non-linear regression model of standard slope using the GraphPad Prism software.

NCI-H460 cell line = settings: National Cancer Institute database; cited from earlier work
A549 cell line = settings: National Cancer Institute database; cited from earlier work
SK-OV-3 cell line = settings: National Cancer Institute database; cited from earlier work
[2] = system: A549 (human lung adenocarcinoma); test: Drug sensitivity test, panel of human cultured cancer cell lines (sulforhodamine B colorimetry); assay type: cell-based
Protocol: (§2) The anticancer activity of exiguolide was examined by an in vitro drug sensitivity test using a panel of 39 human cultured cancer cell lines, by Professor Yamori, Molecular Pharmacology, Cancer Chemotherapy Center of Japanese Foundation for Cancer Research upon request.
(§3) The test was performed by seeding seven lung cancer cell lines, six gastric cancer cell lines, five colon cancer cell lines, five ovarian cancer cell lines, six brain cancer cell lines, five breast cancer cell lines, two kidney cancer cell lines, two prostatic cancer cell lines, and one melanoma cell line, 39 cell lines in total, in a 96-well plate, adding a sample solution containing a predetermined concentration of exiguolide to each well on the following day, culturing the cell lines for two days, and measuring the cell growth by colorimetry with sulforhodamine B. The measurement results were input into a computer, and the sensitivity patterns (growth rate and finger print, described below) of each cell line on exiguolide were analyzed using three parameters, GI50, TGI, and LC50, as indices. The data were also subjected to analysis comparing with sensitivities on known compounds showing cell growth-inhibiting activities.
(§4) The growth rate percentages were plotted with respect to drug concentrations (logarithm) for each cell line, and the growth rates (%) were summarized on each organ cancer (FIG. 3: dose-response curves). In each curve, the concentrations at the points at which the growth rates 50%, 0%, and -50% intersect horizontal lines correspond to log GI50, log TGI, and log LC50, respectively.
(§5) The average of log GI50 values of all cell lines tested was determined. The difference between this average and log GI50 value of each cell line (e.g., how much the GI50 of each cell line is high or low relative to the average is shown as logarithmic value) was determined, and the results were drawn as a bar graph extending left or right from the center showing the average log GI50 value (scale: 0) to form finger prints (FIG. 4). A cell line having higher sensitivity is drawn as a longer bar extending to the right side.

[3] = system: MKN74 (human gastric carcinoma); test: as above; assay type: cell-based
Protocol: as §2, §3, §4, §5

[4] = system: NCI-H460 (human lung large cell carcinoma); test: as above; assay type: cell-based
Protocol: as §2, §3, §4, §5

[5] = system: SK-OV-3 (human ovarian carcinoma); test: as above; assay type: cell-based
Protocol: as §2, §3, §4, §5

[6] = system: A549 cell line derived from lung cancer; test: Antiproliferative activity test (Alamar Blue, 72 hours); assay type: cell-based, human; settings: read-out: IC50 (50% growth inhibition)
Description: as §1

[7] = system: H460 cell line derived from lung cancer; test: as above; assay type: cell-based, human; settings: read-out: IC50 (50% growth inhibition)
Description: as §1

[8] = system: A172 cell line derived from human glioblastoma cells; test: as above; assay type: cell-based; settings: read-out: IC50 (50% growth inhibition)
Description: as §1

H460 cell line = settings: H460 exposed to 1 μM
Protocol: The cell-cycle arrest activity of exiguolide was investigated. The H460 cell line was exposed to 1 μM of exiguolide, and the ratio of cells at each cell cycle phase was measured with a flow cytometer. The DNA staining reagent used was propidium iodide. The A549 cell line was exposed to exiguolide (0.01 to 5 μM) for 72 hours, and then the activity of a cell cycle regulator, Rb, was measured by Wester blotting.

[9] = system: Rb phosphorylation in A549 cell line; test: Activity of cell cycle regulator Rb by Western blotting; assay type: cell-based, human; settings: A549 exposed to 0.01 to 5 μM for 72 hours
[10] = system: tumors induced by human lung cancer cell line A549; test: In vivo antitumor activity test, subcutaneous tumor in immunodeficient mice; parameters: species or system mice (BALB/cAJcl-nu/nu); settings: printed 'in the H460 cell line', 0.2 mg/kg intraperitoneally once a day
Protocol: (§6) Immunodeficient mice (BALB/cAJcl-nu/nu) were subcutaneously inoculated with human lung cancer cells (H460, A549, etc.). When the subcutaneous tumor volume reached approximately 200 mm^3, the mice were divided into an exiguolide administration group (n=2) and a control group (n=4) at random. The administration group was intraperitoneally administered with 0.2 mg/kg of exiguolide, and the control group with PBS (200 μL) and DMSO (5 to 10 μL), every day (once a day). […] The subcutaneous tumors were recognized from the body surface, and the change in tumor diameter was measured with a vernier caliper. […] After completion of the observation, the mice were euthanized with halothane. The tumors were extracted and were subjected to observation of the size, weight, and pathological findings.
(§7) The results are shown in FIG. 8 (H460) and FIG. 9 (A549). In each graph, the vertical axis (relative volume) represents the relative values of the estimated tumor volume of each group to that on the day 0, where the estimated tumor volume is expressed using a major axis “a” and a minor axis “b” by (a×b^2)/2.

[11] = system: tumors induced by human lung cancer cell line H460; test: as above; parameters: species or system mice (BALB/cAJcl-nu/nu); settings: 0.2 mg/kg intraperitoneally once a day, 15 days
Protocol: as §6, §7

[12] = system: Hemicentrotus pulcherrimus; settings: Non Patent Literature 1; cited from earlier work
[13] = concentration inducing 50% cell death, read-out: LC50 (the source's name)
[14] = concentration inducing 50% growth inhibition, two days culture

COC(=O)C/C(C)=C/C=C\C=C\C1OC(=O)CC2C[C@H](O)C[C@H](CC3CCC[C@H](C[C@@H](C)/C=C/[C@@H]1C)O3)O2 (stereo partly shown) [analog 1]
cell growth-inhibiting effect [1]: remarkable cell growth-inhibiting effects
induction of cell death [1]: active induction of cell death was observed

CCCCC=C/C=C/C1OC(=O)CC2C[C@H](O)C[C@H](CC3CCC[C@H](C[C@@H](C)/C=C/[C@@H]1C)O3)O2 (stereo partly shown) [analog 4]
cell growth-inhibiting effect [1]: remarkable cell growth-inhibiting effects
induction of cell death [1]: active induction of cell death was observed

COC(=O)C/C(C)=C/C=C\C=C\C1OC(=O)CC2CC(=O)C[C@H](CC3CCC[C@H](C[C@@H](C)/C=C/[C@@H]1C)O3)O2 (stereo partly shown) [analog 7]
cell growth-inhibiting effect [1]: remarkable cell growth-inhibiting effects
induction of cell death [1]: active induction of cell death was observed

CCC/C=C/C=C/C(=O)O[C@H]1/C(=C/C(=O)OC)C[C@H]2C[C@H]([C@@H](C)O)OC(=O)C[C@H](O)C[C@@H]3C[C@H](OC(C)=O)C(C)(C)[C@](O)(C[C@@H]4C/C(=C/C(=O)OC)C[C@H](/C=C/C(C)(C)[C@]1(O)O2)O4)O3 [bryostatin 1]
antiproliferative activity (log value compared with Log GI50) (NCI-H460 cell line): −5.6
antiproliferative activity (log value compared with Log GI50) (A549 cell line): −5.4
antiproliferative activity (log value compared with Log GI50) (SK-OV-3 cell line): −5.3

COC(=O)/C=C1\C[C@H]2CC(=O)O[C@@H](/C=C/C=C\C=C(/C)CC(=O)OC)[C@@H](C)/C=C/[C@H](C)C[C@H]3CCC[C@@H](C[C@@H](C1)O2)O3 [exiguolide, (−)exiguolide]
CC50 [2, 13]: > 100000 nM
GI50 [2, 14]: 650 nM
Log GI50 [2, 14]: −6.19
CC50 [3, 13]: > 100000 nM
GI50 [3, 14]: 690 nM
Log GI50 [3, 14]: −6.16
LC50 ([4]; concentration inducing 50% cell death): > 100000 nM
GI50 [4, 14]: 10 nM
Log GI50 [4, 14]: −8.00
CC50 [5, 13]: > 100000 nM
GI50 [5, 14]: 700 nM
Log GI50 [5, 14]: −6.15
IC50 [6]: 590 nM
IC50 [7]: 280 nM
IC50 [8]: 460 nM
ratio of cells at G1 phase in cell cycle (H460 cell line): consistently increased the ratio of the G1 phase in cell cycle
phosphorylation of G1-regulating protein Rb [9]: decreased with an increase in concentration of exiguolide
relative tumor weight ratio (administration group/control group) at the end of the experiment ([10]; second of two ratios): 0.33
relative tumor weight of administration group at the end of the experiment ([10]; second of two values): 1.17
relative tumor weight of administration group at the end of the experiment [11]: 3.35
relative tumor weight ratio (administration group/control group) at the end of the experiment [11]: 0.17
activity of inhibiting maturation of ova and spermatozoa [12]: activity of inhibiting maturation of ova and spermatozoa
